Results: ChEMBL document CHEMBL1201862, “PubChem BioAssay data set” (2004)
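Each compound was tested at five concentrations against cells in 96-well plates for 48 hours. The concentration for 50% growth inhibition is given as GI50.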 Activity calls are given as the source filed them. No stated cut-off is given here; in the data, active = GI50 up to about 1.1 µM and inactive = higher.

Tests used:
Experiment in all cases: NCI anticancer screen, dose series, 48 h
[1] = system: PC-3
[2] = system: NCI-H522
[3] = system: UACC-257
[4] = system: EKVX
[5] = system: M14
[6] = system: 786-0
[7] = system: NCI/ADR-RES
[8] = system: DU-145
[9] = system: A549
[10] = system: SF-295
[11] = system: SW-620
[12] = system: MCF7
[13] = system: MDA-MB-231
[14] = system: HCC 2998
[15] = system: UACC-62
[16] = system: SR
[17] = system: HL-60

`COc1ccc(S(=O)(=O)c2nnc(S(=O)(=O)Cc3ccccc3)s2)cc1` was tested, and the GI50 [1] was 21.1 µM (inactive), the GI50 [2] was 8.18 µM (inactive) and the GI50 [3] was 14.7 µM (inactive). The GI50 [4] was 22.4 µM (inactive), the GI50 [5] was 17.5 µM (inactive) and the GI50 [6] was 18.8 µM (inactive). For the same compound, the GI50 [7] was 43.7 µM (inactive), the GI50 [8] was 17 µM (inactive) and the GI50 [9] was 20.8 µM (inactive). For the same compound, the GI50 [10] was 33.3 µM (inactive), the GI50 [11] was 15 µM (inactive) and the GI50 [12] was 19.2 µM (inactive). The GI50 [13] was 17.5 µM (inactive).
In the case of `Cc1c(N2C(=O)/C(=C/c3ccc(N(CCC#N)CCC#N)cc3)N=C2c2ccccc2)c(=O)n(-c2ccccc2)n1C`, the GI50 [14] is reported as > 100 µM (inactive), the GI50 [3] is reported as > 100 µM (inactive) and the GI50 [15] is reported as > 100 µM (inactive). For the same compound, the GI50 [4] was > 100 µM (inactive), the GI50 [5] was > 100 µM (inactive) and the GI50 [16] was > 100 µM (inactive). For the same compound, the GI50 [6] was > 100 µM (inactive), the GI50 [17] was 96.2 µM (inactive) and the GI50 [7] was > 100 µM (inactive). The GI50 [8] was > 100 µM (inactive), the GI50 [9] was > 100 µM (inactive) and the GI50 [10] was > 100 µM (inactive). For the same compound, the GI50 [11] was > 100 µM (inactive), the GI50 [12] was > 100 µM (inactive) and the GI50 [13] was > 100 µM (inactive).
`CCOP(=O)(/C=C/n1cnc2c(=O)n(C(C)=O)c(N)nc21)OCC` was tested, and the GI50 [1] was > 100 µM (inactive), the GI50 [2] was 67.9 µM (inactive) and the GI50 [3] was > 100 µM (inactive). For the same compound, the GI50 [15] was > 100 µM (inactive), the GI50 [4] was > 100 µM (inactive) and the GI50 [5] was > 100 µM (inactive). For the same compound, the GI50 [6] was > 100 µM (inactive), the GI50 [17] was > 100 µM (inactive) and the GI50 [7] was > 100 µM (inactive). For the same compound, the GI50 [8] was > 100 µM (inactive), the GI50 [9] was > 100 µM (inactive) and the GI50 [10] was > 100 µM (inactive). For the same compound, the GI50 [11] was > 100 µM (inactive), the GI50 [12] was > 100 µM (inactive) and the GI50 [13] was > 100 µM (inactive).
In the case of `CC[C@@H]1CC[C@@H]2[C@H](CC[C@]3(C)[C@@H](O)CC[C@@H]23)[C@H]1CO`, the GI50 [14] is reported as > 100 µM (inactive), the GI50 [1] is reported as 76.4 µM (inactive) and the GI50 [2] is reported as 44.6 µM (inactive). The GI50 [3] was > 100 µM (inactive), the GI50 [15] was 79.8 µM (inactive) and the GI50 [4] was > 100 µM (inactive). The GI50 [5] was > 100 µM (inactive), the GI50 [6] was > 100 µM (inactive) and the GI50 [17] was 23.3 µM (inactive). The GI50 [7] was 91.4 µM (inactive), the GI50 [8] was > 100 µM (inactive) and the GI50 [9] was > 100 µM (inactive). The GI50 [10] was 77.3 µM (inactive), the GI50 [11] was > 100 µM (inactive) and the GI50 [12] was > 100 µM (inactive). The GI50 [13] was > 100 µM (inactive).
`Nc1nc(Cl)cc(NCC2(CO)CCC(Cc3ccccc3)C2)n1` (stereo not drawn) was tested, and the GI50 [14] was 25.8 µM (inactive), the GI50 [1] was 26.7 µM (inactive) and the GI50 [2] was 10.1 µM (inactive). For the same compound, the GI50 [3] was 2.78 µM (inactive), the GI50 [15] was 11.9 µM (inactive) and the GI50 [4] was 8.71 µM (inactive). For the same compound, the GI50 [5] was 18.7 µM (inactive), the GI50 [6] was 27.7 µM (inactive) and the GI50 [17] was 2.69 µM (inactive). The GI50 [7] was 20.3 µM (inactive), the GI50 [8] was 27.8 µM (inactive) and the GI50 [9] was 16.3 µM (inactive). For the same compound, the GI50 [10] was 10.1 µM (inactive), the GI50 [11] was 15 µM (inactive) and the GI50 [12] was 11.2 µM (inactive). For the same compound, the GI50 [13] was 33 µM (inactive).
For `C#CC1(O)CCCCCCCCC2(CCCCCCCC1)OCCO2`, the GI50 [14] was 15.5 µM (inactive), the GI50 [1] was 12.8 µM (inactive) and the GI50 [2] was 2.56 µM (inactive). For the same compound, the GI50 [3] was 23.4 µM (inactive), the GI50 [15] was 14.8 µM (inactive) and the GI50 [4] was 18.4 µM (inactive). The GI50 [5] was 19.6 µM (inactive), the GI50 [16] was 12.3 µM (inactive) and the GI50 [6] was 17.6 µM (inactive). The GI50 [17] was 13.5 µM (inactive), the GI50 [7] was 18.1 µM (inactive) and the GI50 [8] was 17.3 µM (inactive). For the same compound, the GI50 [9] was 13.9 µM (inactive), the GI50 [10] was 19.8 µM (inactive) and the GI50 [11] was 18.8 µM (inactive). For the same compound, the GI50 [12] was 20.3 µM (inactive).
In the case of `NCCCN(CCCCN(CCCN)Cc1ccc2ccccc2c1)Cc1ccc2ccccc2c1`, the GI50 [14] is reported as 2.86 µM (inactive), the GI50 [3] is reported as 2.02 µM (inactive) and the GI50 [15] is reported as 2.08 µM (inactive). The GI50 [4] was 1.77 µM (inactive), the GI50 [5] was 1.97 µM (inactive) and the GI50 [6] was 1.62 µM (inactive). The GI50 [17] was 3.76 µM (inactive), the GI50 [7] was 18.7 µM (inactive) and the GI50 [8] was 2.22 µM (inactive). The GI50 [9] was 1.68 µM (inactive), the GI50 [10] was 2.12 µM (inactive) and the GI50 [11] was 2.43 µM (inactive). The GI50 [12] was 2.09 µM (inactive) and the GI50 [13] was 3.18 µM (inactive).
`CCOc1ccc(NC(=S)N/C=C(/C(C)=O)C(=O)Nc2ccccc2C)cc1` was tested, and the GI50 [14] was > 100 µM (inactive), the GI50 [1] was > 100 µM (inactive) and the GI50 [2] was > 100 µM (inactive). The GI50 [3] was > 100 µM (inactive), the GI50 [15] was > 100 µM (inactive) and the GI50 [4] was > 100 µM (inactive). For the same compound, the GI50 [5] was > 100 µM (inactive), the GI50 [6] was > 100 µM (inactive) and the GI50 [17] was > 100 µM (inactive). For the same compound, the GI50 [7] was > 100 µM (inactive), the GI50 [8] was > 100 µM (inactive) and the GI50 [9] was > 100 µM (inactive). For the same compound, the GI50 [10] was > 100 µM (inactive), the GI50 [11] was > 100 µM (inactive) and the GI50 [12] was > 100 µM (inactive). The GI50 [13] was > 100 µM (inactive).
`CC1(C)OC2OC(C(COS(=O)(=O)C(F)(F)F)N=[N+]=[N-])C(OC(=O)c3ccccc3)C2O1` (stereo not drawn) was tested, and the GI50 [14] was > 100 µM (inactive), the GI50 [1] was > 100 µM (inactive) and the GI50 [3] was > 100 µM (inactive). The GI50 [15] was > 100 µM (inactive), the GI50 [4] was > 100 µM (inactive) and the GI50 [5] was > 100 µM (inactive). The GI50 [6] was > 100 µM (inactive), the GI50 [17] was > 100 µM (inactive) and the GI50 [7] was > 100 µM (inactive). The GI50 [8] was > 100 µM (inactive), the GI50 [9] was > 100 µM (inactive) and the GI50 [10] was > 100 µM (inactive). The GI50 [11] was > 100 µM (inactive), the GI50 [12] was > 100 µM (inactive) and the GI50 [13] was > 100 µM (inactive).
For `CCCCCCCC(CC(=O)NC(CO)C(=O)NC(CO)CC(C)C)OC(=O)CC(CCCCCCC)OC(=O)CC(CCCCCCC)OC1OC(C)C(O)C(OC2OC(C)C(OC(C)=O)C(O)C2O)C1O` (stereo not drawn), the GI50 [14] was 5.05 µM (inactive), the GI50 [1] was 4.04 µM (inactive) and the GI50 [2] was 11.7 µM (inactive). The GI50 [3] was 2.22 µM (inactive), the GI50 [15] was 6.34 µM (inactive) and the GI50 [4] was 14.9 µM (inactive). The GI50 [5] was 3.67 µM (inactive), the GI50 [16] was 2.55 µM (inactive) and the GI50 [6] was 5.6 µM (inactive). The GI50 [17] was 2.92 µM (inactive), the GI50 [8] was 11.8 µM (inactive) and the GI50 [9] was 11.2 µM (inactive). The GI50 [10] was 12 µM (inactive), the GI50 [11] was 10.7 µM (inactive) and the GI50 [12] was 11.1 µM (inactive). For the same compound, the GI50 [13] was 7.91 µM (inactive).
In the case of `COc1cccc(C2c3cc4c(cc3OC(NNS(=O)(=O)c3ccc(C)cc3)C2C)OCO4)c1O` (stereo not drawn), the GI50 [14] is reported as 31.1 µM (inactive), the GI50 [1] is reported as 12.4 µM (inactive) and the GI50 [2] is reported as 11.4 µM (inactive). For the same compound, the GI50 [3] was 19.7 µM (inactive), the GI50 [15] was 22 µM (inactive) and the GI50 [4] was 20.2 µM (inactive). For the same compound, the GI50 [5] was 24.7 µM (inactive), the GI50 [16] was 6.79 µM (inactive) and the GI50 [6] was 0.537 µM (active). The GI50 [17] was 18 µM (inactive), the GI50 [8] was 30.5 µM (inactive) and the GI50 [9] was 18.6 µM (inactive). The GI50 [10] was 20.8 µM (inactive), the GI50 [11] was 23 µM (inactive) and the GI50 [12] was 18.7 µM (inactive). For the same compound, the GI50 [13] was 20.4 µM (inactive).
`CN1CCN(c2ccc3nc(C4=C(O)C(=O)[C@@H]5C(=C4O)N=C(CO)N5C)[nH]c3n2)CC1` was tested, and the GI50 [14] was 68.4 µM (inactive), the GI50 [1] was 69.8 µM (inactive) and the GI50 [2] was 64.3 µM (inactive). For the same compound, the GI50 [3] was > 100 µM (inactive), the GI50 [15] was 33.3 µM (inactive) and the GI50 [4] was > 100 µM (inactive). The GI50 [5] was > 100 µM (inactive), the GI50 [6] was > 100 µM (inactive) and the GI50 [17] was 40.2 µM (inactive). The GI50 [7] was > 100 µM (inactive), the GI50 [8] was > 100 µM (inactive) and the GI50 [9] was > 100 µM (inactive). The GI50 [10] was > 100 µM (inactive), the GI50 [11] was > 100 µM (inactive) and the GI50 [13] was 62.5 µM (inactive).
With `Cc1cc(-c2nc3c(F)cccc3s2)ccc1N` the GI50 [1] was 97.5 µM (inactive), the GI50 [2] was 11.3 µM (inactive) and the GI50 [3] was 82.6 µM (inactive). The GI50 [15] was 21 µM (inactive), the GI50 [4] was 2.42 µM (inactive) and the GI50 [5] was 97.5 µM (inactive). For the same compound, the GI50 [16] was 48 µM (inactive), the GI50 [6] was 92.5 µM (inactive) and the GI50 [17] was 43.8 µM (inactive). For the same compound, the GI50 [7] was > 100 µM (inactive), the GI50 [8] was 52.4 µM (inactive) and the GI50 [9] was 49.3 µM (inactive). For the same compound, the GI50 [10] was 41.2 µM (inactive), the GI50 [11] was > 100 µM (inactive) and the GI50 [13] was > 100 µM (inactive).
